Reference: patent US20030017497A1, “Peptide mimotopes of carbohydrate antigens” (priority 1998, published 2003)
Entries after “also recorded” stand apart in the source; their conditions may differ. Like-named read-outs stand apart in the source and are kept apart here. Where no end group is shown, it is not given here.

Key:
[1] = tested on: anti-LeY monoclonal antibody BR55-2; assay: ELISA reaction of MAb BR55-2 with peptides (MAP forms); format: binding; conditions: for ELISA reactivity of BR55-2 with MAP peptide: MAP peptide forms; for binding of peptide to BR55-2 in ELISA: monovalent peptide
Method: (§1) FIGS. 2A and 2B depict the reactivity of putative motifs by ELISA. […] Constant amounts of BR55-2 were incubates with increasing amounts of MAP peptides, and then reaction of free mAb with LeY was measured by ELISA. Data points reflect 50% inhibition at 2 μg/ml of peptide inhibitor as measured by reduction of O.D. values in ELISA.
(§2) For example, polyclonal antibodies raised against the motif YYRYD might cross-react with MCP and with LeY. […] To further determine the extent of cross-reactivity for these motifs, peptides were synthesized repeating the respective putative centralized motifs shown in Table 2. It is theorized that the repeating tract should adopt a helix configuration which emulates many extended carbohydrate structures. To evaluate the antigenic mimicry of motif forms, we synthesized respective multiple antigen peptides (MAP) forms for detection of a reactivity pattern with the anti-LeY monoclonal antibodies BR55-2, and 15.6 (also referred to as BR15.6) and the anti-ganglioside antibody ME361 (FIG. 2a). Significant reactive sequences in FIG. 2a correspond to 3 peptides,
(§3) BR55-2 and 15.6A show distinct binding properties for LeY expressing tumor cells. […] The general mimicry of the K1106, K1105 and K1107 peptides for Le antigens is further assessed by ELISA reactivity with the anti-SA-LeX monoclonal antibody FH-6 (FIG. 3). These peptides are also reactive with this antibody. The significance of this reactivity is that previous reports indicate that peptides might only be reactive with antibodies that isolate them and in fact it is expected that peptide mimotopes might be not true mimics of carbohydrates.

[2] = tested on: anti-SA-LeX monoclonal antibody FH-6; assay: ELISA reactivity of peptides with antibody FH-6; format: binding
Description: FIG. 3 depicts the reactivity of the anti-sLex antibody FH-6 with MAP peptides.
as §3

MCF-7 = assay: Complement dependent cytotoxicity (CDC); format: cell-based, human
Description: (§4) Anti-carbohydrate antibodies may mediate complement dependent cytotoxicity (CDC) better than cytotoxicity associated with various effector cells. Subsequently, we have initially examined CDC mediation of various sera raised either to peptides or against the multivalent LeY-PAA form. […] We examined the ability of the sera to mediate complement dependent cytotoxicity (CDC) of the SKBR3 and MCF7 human breast adenocarcinoma cell lines, the ovarian tumor cell line OVAR-3 and the human melanoma lines WM793 and SKMEL-28 compared to that of the LeY-PAA generated sera. Positive control antibodies were BR55-2 which mediates CDC of the adenocarcinoma lines, and ME361 which mediates killing of WM793. Negative controls were pre-immune sera, an irrelevant peptide immunogen (C1) and two peptides (G1 and G2) isolated from phage display that are reactive with ME361.

WM793 = assay: Complement dependent cytotoxicity (CDC); format: cell-based, human
Description: as §4

SKBR3 = assay: Complement dependent cytotoxicity (CDC); format: cell-based, human
Description: as §4

SKME1-28 = assay: Complement dependent cytotoxicity (CDC); format: cell-based, human
Description: as §4

OVAR-3 = assay: Complement dependent cytotoxicity (CDC); format: cell-based, human
Description: as §4

HIV-1/3B isolate = assay: HIV-1 cell free neutralization; format: cell-based; conditions: Balb/c anti-peptide sera
Description: (§5) FIGS. 7A, 7B and 7C depict anti-peptide sera mediation of HIV-1 cell free neutralization.
(§6) Mannose, sialyl and histo-blood group related carbohydrate epitopes (particularly LeY) are found on the major envelope protein of the human immunodeficiency virus (HIV). Consequently, we examined the extent to which the anti-peptide sera could mediate HIV-1 cell free neutralization. We observed that sera from Balb/c and C57B1/6 mice immunized with P1 or P2, neutralized HIV-1/MN at final dilution's up to 1:64 (FIGS. 7a-c). FIG. 7a illustrates the neutralization of HIV-1/MN by anti-P1 and P2 sera from Balb/c mice. Normal human sera (NHS), as well as the anti-P3 sera, were ineffective at blocking syncytia formnation, whereas human α-HIV-1 sera from 4 different infected patients neutralize cell free virus at dilution's up to 1:64. Sera derived from C57B1/6 mice also followed this profile (FIG. 7b). The isolate specificity was further determined by cell free neutralization of the HIV-1/3B isolate (FIG. 7c).

HIV-1/MN = assay: HIV-1 cell free neutralization (syncytia formation); format: cell-based; conditions: anti-peptide sera
Description: as §5, §6

[3] = tested on: BR55-2 binding to LeY-PAA; assay: Inhibition of mAb BR55-2 binding to solid-phase LeY-PAA by soluble MAP peptides (ELISA); conditions: 20 times molar excess of MAP peptide
Method: as §1, §3

[4] = ELISA with various synthetic carbohydrate subunit probes; format: binding
Method: To further evaluate the specificity of the anti-carbohydrate IgG fraction derived from proteosome-conjugate immunized mice, ELISA assays were performed with plates coated with various synthetic carbohydrate subunit probes (FIG. 5a). […] It was observed that the anti-peptide sera (1:100 titer) was reactive with respective carbohydrate probes above background binding. Preferences for antisera against the YPY motif include Fucα1-3GlcNAc representative of LeY, and Lex, the H type 1 structure Fucα1-2Galβ1-3GlcNAc representative of Leb, and the disaccharide Galb1-4Glc which is a major constituent bacterial LOS. […] The antisera reacted with both H type 1 and H type 2 (Fucα1-2Galβ1-4GlcNAc) structures, with the type 1 structure displaying slightly more activity. This may reflect interaction with the common Fucα1-2Gal structure found on type 1 and type 2 structures or functional groups that are shared within the common topography of these two chains.
In contrast to the proteosome-peptide conjugates, increased specificity for LeY is observed for the MAP forms (FIG. 5b). At 1:50 dilution, the LeY reactivity of the antisera is approximately 3 fold more reactive with LeY than with Leb, Lex-pentasaccharide, SLea, SLex. […] Considering the diminished reactivity against LeX which shares the Galβ1→4(Fucα1→3)GlcNAcβ1 component it would appear that a fraction of antibodies react with a conformational component of LeY, providing for its increased reactivity, or alternatively, the affinity for LeY is increased.
To further evaluate the specificity of the 1104 peptide we synthesized 1104 as a MAP form and immunized Balb/c mice, with QS-21 as adjuvant and examined its reactivity pattern with various Le synthetic probes by ELISA (FIG. 9). The utility of MAP peptides is in their apparent advantage as immunogens. […] However, the MAPS described above contain T cell epitopes within the peptide sequence. […] We have observed this trend with MAP peptides.
At 1:50 serum dilution (FIG. 9), we observed about the same level of reduced reactivity for Leb hexasaccharide, LeX-pentasaccharide, sLeX, Lea, and sLea, while higher levels of reactivity are observed for LeY and LeY constituents. […] This selective interaction sets apart reactivities between Leb and LeY, since reactivity is observed for the H type 1 constituent of Leb.

[5] = ELISA reactivity of sera of peptide-immunized mice with LeY and Leb; format: in vivo, Balb/c mice; conditions: anti-1104 MAP sera
Description: The immunological presentation of the putative motifs, (i.e. short or longer peptides, presentation in a helix or beta bend, monovalent or multivalent (clustered forms)) might mimic overlapping epitopes on otherwise different carbohydrate structures. To test this idea, Balb/c mice were immunized with peptide-proteosome conjugates representative of the motifs YYPYD (SEQ ID NO: 6), and YYRYD (SEQ ID NO: 7) or the same peptides as MAP forms that are multiple repeats of the motifs administered with QS-21. Sera were collected 1 week after the last immunization, pooled and tested for reactivity with LeY and Leb. […] Superposition of LeY and Leb structures indicate that despite the change of glycosidic linkage from β1-3 to β1-4 in the type 1 and 2 chains, resulting conformational features of the respective sugar moieties are still shared forming a common topography. The only effective difference is the position of the N-acetyl and hydroxymethyl groups projected on opposite sides of the type 1 and 2 difucosylated structures.
Sera derived from immunization with the MAP peptides indicate that the IgM isotype is the predominate form, titering out to 1:2000 for the two carbohydrate forms, but displaying significant differences in reactivity for LeY and Leb that are accentuated at 1:100 and 1:500 titer (FIG. 4b). […]

[6] = tested on: anti-ganglioside antibody ME361; assay: ELISA reaction of MAb ME361 with MAP peptides; format: binding; conditions: MAP peptide forms
Method: as §1, §2
(§7) BR55-2 and 15.6A show distinct binding properties for LeY expressing tumor cells. […] The general mimicry of the K1106, K1105 and K1107 peptides for Le antigens is further assessed by ELISA reactivity with the anti-SA-LeX monoclonal antibody FH-6 (FIG. 3). These peptides are also reactive with this antibody. […]

[7] = tested on: anti-LeY monoclonal antibody 15.6 (BR15.6, 15.6A); assay: ELISA reaction of MAb 15.6 (BR15-6A) with peptides; format: binding
Method: as §1, §2, §7

[8] = biological target: anti-LeY monoclonal antibody BR55-2; assay: competition ELISA: soluble MAP peptide against solid-phase LeY-PAA for BR55-2 (FIG. 2b)
[9] = MCF-7, sera raised to the immunogen, final dilution 1:15
[10] = WM793, sera raised to the immunogen, final dilution 1:15
[11] = SKBR3, sera raised to the immunogen, final dilution 1:15
[12] = SKME1-28, sera raised to the immunogen, final dilution 1:15
[13] = OVAR-3, sera raised to the immunogen, final dilution 1:15
[14] = anti-1104 MAP sera, 1:50 serum dilution

Molecule: GGIYYPYDIYYPYDIYYPYD (Novel Sequence) [Peptide K61105]
- ELISA reactivity of BR55-2 with MAP peptide [1]: reduces the recognition ability
- ELISA reactivity with FH-6 [2]: also reactive

Molecule: GGIYYPYDIYYPYDIYYPYD (Novel Sequence) [Peptide P1]
- averaged percent cytotoxicity (MCF-7; [9]): 66%
- averaged percent cytotoxicity (WM793; [10]): 9%
- averaged percent cytotoxicity (SKBR3; [11]): 90%
- averaged percent cytotoxicity (SKME1-28; [12]): 10%
- averaged percent cytotoxicity (OVAR-3; [13]): 89%
- neutralization of HIV-1/3B infection in vitro (HIV-1/3B isolate): effective in neutralizing

Molecule: GGIYYRYDIYYRYDIYYRYD (Novel Sequence) [Peptide P3]
- averaged percent cytotoxicity (MCF-7): 56%
- averaged percent cytotoxicity (WM793): 28%
- averaged percent cytotoxicity (SKBR3): 86%
- averaged percent cytotoxicity (SKME1-28): 32%
- averaged percent cytotoxicity (OVAR-3): 86%
- blocking syncytia formation (HIV-1/MN): ineffective

Molecule: LDVVLAWRDGLSGAS [Peptide G2, LDVVLAWRDGLSGAS]
- averaged percent cytotoxicity (MCF-7): 15%
- averaged percent cytotoxicity (WM793): 90%
- averaged percent cytotoxicity (SKBR3): 13%
- averaged percent cytotoxicity (SKME1-28): 87%
- averaged percent cytotoxicity (OVAR-3): 11%

Molecule: GGIYWRYDIYWRYDIYWRYD (Novel Sequence) [Peptide K61106]
- ELISA reactivity of BR55-2 with MAP peptide [1]: bound very well
- ELISA reactivity with FH-6 [2]: also reactive
- inhibition of BR55-2 binding to LeY [3]: 50%

Molecule: GGIYWRYDIYWRYDIYWRYD (Novel Sequence) [Peptide P2, elsewhere called YYRYD motif]
- averaged percent cytotoxicity (MCF-7): 29%
- averaged percent cytotoxicity (WM793): 9%
- averaged percent cytotoxicity (SKBR3): 80%
- averaged percent cytotoxicity (SKME1-28): 13%
- averaged percent cytotoxicity (OVAR-3): 84%
- neutralization of HIV-1/3B infection in vitro (HIV-1/3B isolate): effective in neutralizing

Molecule: GGYYRYDIYYRYDIYYRYD (Novel Sequence) [Peptide K61107]
- less reactivity with Lea and Sialyl-Lex ([4]; antisera to MAP, 1:50 dilution): about 1 fold
- ELISA reactivity of BR55-2 with MAP peptide [1]: bound very well
- ELISA reactivity with FH-6 [2]: also reactive
- inhibition of BR55-2 binding to LeY [3]: 50%

Molecule: APWLYGPA (Novel Sequence) [reference compound]
- binding of peptide to BR55-2 in ELISA [1]: does not bind

Molecule: GVVWRYTAPVHLGDG [Peptide G1, GVVWRYTAPVHLGDG]
- averaged percent cytotoxicity (MCF-7): 20%
- averaged percent cytotoxicity (WM793): 90%
- averaged percent cytotoxicity (SKBR3): 10%
- averaged percent cytotoxicity (SKME1-28): 75%
- averaged percent cytotoxicity (OVAR-3): 9%

Molecule: IMILLIFSLLWFGGA (Novel Sequence) [Peptide B1]
- serum reactivity with Fucal-3GlcNAc [4, 14]: best reactivity
- serum reactivity with Fucα1-4GIcNAc [4, 14]: significantly reduced reactivity
- serum reactivity with Galβ1-3Gal [4, 14]: Minimal binding
- averaged percent cytotoxicity (MCF-7; [9]): 70%
- averaged percent cytotoxicity (WM793; [10]): 10%
- averaged percent cytotoxicity (SKBR3; [11]): 90%
- averaged percent cytotoxicity (SKME1-28; [12]): 10%
- averaged percent cytotoxicity (OVAR-3; [13]): 85%
- increase in reactivity for LeY over Leb [5]: three to fold increase
- isotype of anti-peptide sera [5]: predominately of IgM isotype
- ELISA reactivity with FH-6 [2]: does not react

Molecule: GGGAPWLYGAPWLYGAPWLY [Peptide K61223, triple repeat of the APWLY motif]
- ELISA reactivity (O.D.) of ME361 with MAP peptide [6]: not reactive
- ELISA reactivity of 15.6 / BR15-6A with peptide [7]: not reactive
- ELISA reactivity of BR55-2 with MAP peptide [1]: not reactive; also recorded: little reactivity

Molecule: APWLYAP (Novel Sequence) [reference compound]
- ELISA reactivity of 15.6 / BR15-6A with peptide [7]: negative
- binding of peptide to BR55-2 in ELISA [1]: negative

Molecule: GGIYWRYDIYWRYDIYWRYD (also: multiple antigen peptide (MAP) form, branches and core not given here) [K61106 MAP peptide …]
- molar excess giving 50% inhibition (times molar excess) [8]: 20

Molecule: GGYYRYDIYYRYDIYYRYD (also: multiple antigen peptide (MAP) form, branches and core not given here) [K61107 MAP peptide …]
- molar excess giving 50% inhibition (times molar excess) [8]: 20
